Experimental data: paper PMC11478076, “Synthetic Routes to 2-aryl-1H-pyrrolo[2,3-b]pyridin-4-amines: Cross-Coupling and Challenges in SEM-Deprotection” (Molecules, 2024)
Values joined by “and” are separate entries in the source; they are usually repeats but may differ in a detail not shown here. Equal values may be shown once. Read-outs that look alike come from different tables or passages of the source. Blank lines part the entries; values can stand above or below the molecule they belong to.

Key:
[1] = molecular target: T1, CSF1R (Homo sapiens, UniProt P07333); design: method as in PMID 38141285; details: cited from earlier work
[2] = molecular target: T1, CSF1R; design: method as in Aarhus et al. [19]; details: LANCE Ultra assay; ATP level 25 μM; previously reported data ref Aarhus et al. [19]; cited from earlier work
[3] = molecular target: T1, CSF1R; assay: CSF1R enzymatic inhibitory assay, LANCE Ultra TR-FRET (Perkin Elmer); format: biochemical
Procedure: (§1) CSF1R enzymatic inhibitory assay
(§2) The compounds were supplied in a 10 mM DMSO solution, and enzymatic CSF1R inhibition potency was determined by Invitrogen (ThermoFisher) using their Z’-LYTE® assay technology.[11] The assay is based on fluorescence resonance energy transfer (FRET). In the primary reaction, the kinase transfers the gamma-phosphate of ATP to a single tyrosine residue in a synthetic FRET-peptide. In the secondary reaction, a site-specific protease recognizes and cleaves non-phosphorylated FRET-peptides. Thus, phosphorylation of FRET-peptides suppresses cleavage by the development reagent. Cleavage disrupts FRET between the donor (i.e. coumarin) and acceptor (i.e., fluorescein) fluorophores on the FRET-peptide, whereas uncleaved, phosphorylated FRET-peptides maintain FRET. […]
(§3) The TR-FRET-based LANCE Ultra assay (Perkin Elmer) was used to determine IC50 values for various CSF1R inhibitors. Kinase activity and inhibition in this assay was measured as […]
recommended by the manufacturer. […] Subsequently, phosphorylation or inhibition was detected by addition of specific europium (Eu)-labelled anti-phospho-antibodies (2 nM), which upon binding to the phospho-peptide give rise to a FRET signal. The FRET signal was recorded in a time-resolved manner in a Perkin Elmer EnVision reader. […] All assay data was analysed with the Quattro Workflow software package from Quattro Research.

[4] = molecular target: T1, CSF1R; assay: CSF1R enzymatic inhibitory assay, Z'-LYTE (Invitrogen/ThermoFisher); format: biochemical; details: ATP level equal to KM 10 μM, two titration curves (20 data points)
Procedure: Figure 2 CSF1R inhibition (IC50 curves) for the 7-azaindole 3c (red squares), pyrrolopyrimidine 1 (blue circles) and thienopyrimidine 2 (green triangles). The solid lines are regression curves generated from 20 data points each. The assay was performed at ThermoFisher (Invitrogen, San Diego, CA, USA) using the Z-lyte technology; ATP level was equal to KM.
as §1, §2, §3

T1 sequence (P07333 20-972): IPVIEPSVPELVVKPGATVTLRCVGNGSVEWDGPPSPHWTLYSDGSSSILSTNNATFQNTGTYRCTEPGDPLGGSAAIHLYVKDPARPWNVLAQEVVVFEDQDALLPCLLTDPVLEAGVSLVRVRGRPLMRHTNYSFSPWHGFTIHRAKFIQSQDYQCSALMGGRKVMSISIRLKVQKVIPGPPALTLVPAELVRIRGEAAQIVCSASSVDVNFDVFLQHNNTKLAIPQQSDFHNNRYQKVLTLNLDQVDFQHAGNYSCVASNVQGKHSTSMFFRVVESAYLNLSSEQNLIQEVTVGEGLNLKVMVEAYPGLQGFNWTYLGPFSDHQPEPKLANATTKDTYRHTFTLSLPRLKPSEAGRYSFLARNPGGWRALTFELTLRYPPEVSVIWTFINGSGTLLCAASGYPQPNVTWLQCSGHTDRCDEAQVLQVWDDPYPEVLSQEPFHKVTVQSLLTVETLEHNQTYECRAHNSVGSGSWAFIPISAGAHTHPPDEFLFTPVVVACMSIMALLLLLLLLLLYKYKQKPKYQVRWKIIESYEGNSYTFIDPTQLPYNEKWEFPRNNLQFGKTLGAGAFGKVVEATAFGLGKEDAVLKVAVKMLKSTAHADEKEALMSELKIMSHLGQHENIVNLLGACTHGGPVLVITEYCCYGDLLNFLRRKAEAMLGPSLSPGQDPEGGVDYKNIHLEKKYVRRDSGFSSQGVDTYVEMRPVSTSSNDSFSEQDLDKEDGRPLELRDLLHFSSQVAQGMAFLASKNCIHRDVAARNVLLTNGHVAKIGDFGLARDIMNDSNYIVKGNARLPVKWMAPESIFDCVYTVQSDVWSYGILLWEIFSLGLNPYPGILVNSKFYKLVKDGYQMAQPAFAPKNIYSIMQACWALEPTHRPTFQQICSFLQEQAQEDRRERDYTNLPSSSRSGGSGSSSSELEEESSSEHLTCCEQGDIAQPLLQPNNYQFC

melting point: 191 to 193 °C
SMILES: CN(Cc1ccccc1)c1ccnc2[nH]c(-c3ccccc3)cc12 [3a, N-Benzyl-N-methyl-2-phenyl-1H-pyrrolo-[2,3-b]pyridin-4-amine]

SMILES: CN(Cc1ccccc1)c1ncnc2sc(-c3ccc(CO)cc3)cc12 [compound 2]
CSF1R inhibitory activity in enzymatic studies (in words) [1]: far less active
IC50 [2]: 450 nM

melting point: 200 to 201 °C
fold lower CSF1R activity compared to the corresponding pyrrolopyrimidine (reference inhibitor 1) ([3]; CSF1R assay with higher ATP concentration (25 μM)): 20 fold
IC50 ([3]; LANCE Ultra assay, ATP level 25 μM): 105 nM
IC50 [4]: 3 nM and 3.1 nM
SMILES: CN(Cc1ccccc1)c1ccnc2[nH]c(-c3ccc(CO)cc3)cc12 [3c, (4-(4-(Benzyl(methyl)amino)-1H-pyrrolo[2,3-b]pyridin-2-yl)phenyl)methanol]

melting point: 287 to 289 °C (dec.)
SMILES: COc1ccc(-c2[nH]c3nccc4c3c2Cc2ccccc2CN4C)cc1 [16b, 1-(4-Methoxyphenyl)-6-methyl-2,6,7,12-tetrahydro-2,3,6-triazabenzo[6,7]cycloocta[1,2,3-cd]indene]
